Values after ≈ are worked out from the molar mass of the structure shown. Active and inactive are the calls of the source. The calls are words filed in the database; no cut-off is given here.
Assays:
Staphylococcus aureus [1] = assay: Bactericidal activity against methicillin resistant Staphylococcus aureus ATCC 43300 at 8 times of MIC measured a 6 to 24 hrs by time-kill kinetic assay; type: functional, organism-based; conditions: time 6-24 hrs
Staphylococcus aureus [2] = assay: Drug resistance, ratio of MIC for methicillin-resistant Staphylococcus aureus ATCC 43300 measured after 10 passages to MIC for methicillin-resistant Staphylococcus aureus during first exposure; type: functional
Staphylococcus aureus [3] = assay: Antibacterial activity against methicillin resistant Staphylococcus aureus ATCC 43300 assessed as post antibiotic effect at 8 times of MIC incubated for 1 hrs and measured after 8 hrs; type: functional; conditions: time 9 hrs
Staphylococcus aureus [4] = assay: Drug resistance, ratio of MIC for methicillin-resistant Staphylococcus aureus ATCC 43300 measured after 8 passages to MIC for methicillin-resistant Staphylococcus aureus during first exposure; type: functional
Escherichia coli [5] = assay: Antibacterial activity against Escherichia coli ATCC 25922 assessed as inhibition of bacterial growth by broth microdilution method; type: functional
Enterococcus faecalis = assay: Antibacterial activity against Enterococcus faecalis ATCC 29212 assessed as inhibition of bacterial growth by broth microdilution method; type: functional
Staphylococcus aureus [6] = assay: Bactericidal activity against Staphylococcus aureus ATCC 43300 at 8 times MIC measured after 8 hrs by time kill assay; type: functional, organism-based
Staphylococcus aureus [7] = assay: Antibacterial activity against methicillin resistant Staphylococcus aureus ATCC 43300 assessed as assessed as bacterial killing incubated for 24 hrs by time-kill kinetics assay; type: functional, organism-based
Acinetobacter baumannii = assay: Antibacterial activity against Acinetobacter baumannii ATCC 17978 assessed as inhibition of bacterial growth by broth microdilution method; type: functional
Staphylococcus aureus [8] = assay: Antibacterial activity against Staphylococcus aureus ATCC 29213 assessed as inhibition of bacterial growth by broth microdilution method; type: functional
[9] = Inhibition of Escherichia coli DNA topoisomerase-IV relaxation plate assay
Staphylococcus aureus [10] = assay: Antibacterial against methicillin resistant Staphylococcus aureus ATCC 43300 assessed as inhibition of bacterial growth by broth microdilution method; type: functional; conditions: time 24 hrs
DNA gyrase = DNA gyrase (Escherichia coli, UniProt P0AES4+P0AES6); assay: Inhibition of Escherichia coli DNA gyrase by supercoiling plate assay; type: protein-complex assay
[11] = molecular target: T1, DNA topoisomerase 2-alpha (Homo sapiens, UniProt P11388); assay: (§1) Inhibition of human DNA topoisomerase 2-alpha using linear pBR322 as substrate assessed as conversion of NADH to NAD+ by measuring residual activity at 100 uM preincubated for 10 to 15 mins in presence of pyruvate kinase/lactate dehydrogenase mix followed by ATP addition and measured after 30 mins by ATPase assay relative to control; conditions: time 40-55 min
Pseudomonas aeruginosa = assay: Antibacterial activity against Pseudomonas aeruginosa ATCC 27853 assessed as inhibition of bacterial growth by broth microdilution metho; type: functional
MCF7 = assay: Cytotoxicity against human MCF7 cells assessed as cell viability at 50 uM incubated for 72 hrs by CellTiter 96 aqueous one solution reagent based MTS assay relative to control; type: functional; conditions: read-out: Activity
Enterococcus faecium = assay: Antibacterial activity against vancomycin-resistant Enterococcus faecium ATCC 700221 assessed as inhibition of bacterial growth by broth microdilution method; type: functional
Enterobacter cloacae = assay: Antibacterial activity against Enterobacter cloacae subsp. cloacae ATCC 13047 assessed as inhibition of bacterial growth by broth microdilution method; type: functional
Staphylococcus aureus [12] = assay: Antibacterial against vancomycin-intermediate Staphylococcus aureus ATCC 700699 assessed as inhibition of bacterial growth by broth dilution method; type: functional
Klebsiella pneumoniae = assay: Antibacterial activity against Klebsiella pneumoniae ATCC 10031 assessed as inhibition of bacterial growth by broth microdilution method; type: functional
[13] = molecular target: DNA gyrase (Escherichia coli) (UniProt P0AES6+P0AES4); assay: Inhibition of Escherichia coli DNA gyrase assessed as residual activity at 1 uM by supercoiling plate assay relative to control; type: protein-complex assay
[14] = molecular target: T1, DNA topoisomerase 2-alpha; assay: as §1, with “40” for “100”; conditions: time 40-55 min
[15] = molecular target: T1, DNA topoisomerase 2-alpha; assay: as §1, with “10” for “100”; conditions: time 40-55 min
[16] = molecular target: DNA gyrase (Staphylococcus aureus) (UniProt P0A0K8+P20831); assay: Inhibition of Staphylococcus aureus DNA gyrase assessed as residual activity at 0.1 uM by supercoiling plate assay relative to control; type: protein-complex assay
Escherichia coli [17] = assay: Inhibition of Escherichia coli DNA topoisomerase-IV assessed as residual activity at 10 uM by relaxation plate assay relative to control
Escherichia coli [18] = assay: Inhibition of Escherichia coli DNA topoisomerase-IV assessed as residual activity at 1 uM by relaxation plate assay relative to control
[19] = molecular target: T1, DNA topoisomerase 2-alpha; assay: Inhibition of human DNA topoisomerase 2-alpha using linear pBR322 as substrate assessed as conversion of NADH to NAD+ preincubated for 10 to 15 mins in presence of pyruvate kinase/lactate dehydrogenase mix followed by ATP addition and measured after 30 mins by ATPase assay

T1 sequence (P11388 whole entry): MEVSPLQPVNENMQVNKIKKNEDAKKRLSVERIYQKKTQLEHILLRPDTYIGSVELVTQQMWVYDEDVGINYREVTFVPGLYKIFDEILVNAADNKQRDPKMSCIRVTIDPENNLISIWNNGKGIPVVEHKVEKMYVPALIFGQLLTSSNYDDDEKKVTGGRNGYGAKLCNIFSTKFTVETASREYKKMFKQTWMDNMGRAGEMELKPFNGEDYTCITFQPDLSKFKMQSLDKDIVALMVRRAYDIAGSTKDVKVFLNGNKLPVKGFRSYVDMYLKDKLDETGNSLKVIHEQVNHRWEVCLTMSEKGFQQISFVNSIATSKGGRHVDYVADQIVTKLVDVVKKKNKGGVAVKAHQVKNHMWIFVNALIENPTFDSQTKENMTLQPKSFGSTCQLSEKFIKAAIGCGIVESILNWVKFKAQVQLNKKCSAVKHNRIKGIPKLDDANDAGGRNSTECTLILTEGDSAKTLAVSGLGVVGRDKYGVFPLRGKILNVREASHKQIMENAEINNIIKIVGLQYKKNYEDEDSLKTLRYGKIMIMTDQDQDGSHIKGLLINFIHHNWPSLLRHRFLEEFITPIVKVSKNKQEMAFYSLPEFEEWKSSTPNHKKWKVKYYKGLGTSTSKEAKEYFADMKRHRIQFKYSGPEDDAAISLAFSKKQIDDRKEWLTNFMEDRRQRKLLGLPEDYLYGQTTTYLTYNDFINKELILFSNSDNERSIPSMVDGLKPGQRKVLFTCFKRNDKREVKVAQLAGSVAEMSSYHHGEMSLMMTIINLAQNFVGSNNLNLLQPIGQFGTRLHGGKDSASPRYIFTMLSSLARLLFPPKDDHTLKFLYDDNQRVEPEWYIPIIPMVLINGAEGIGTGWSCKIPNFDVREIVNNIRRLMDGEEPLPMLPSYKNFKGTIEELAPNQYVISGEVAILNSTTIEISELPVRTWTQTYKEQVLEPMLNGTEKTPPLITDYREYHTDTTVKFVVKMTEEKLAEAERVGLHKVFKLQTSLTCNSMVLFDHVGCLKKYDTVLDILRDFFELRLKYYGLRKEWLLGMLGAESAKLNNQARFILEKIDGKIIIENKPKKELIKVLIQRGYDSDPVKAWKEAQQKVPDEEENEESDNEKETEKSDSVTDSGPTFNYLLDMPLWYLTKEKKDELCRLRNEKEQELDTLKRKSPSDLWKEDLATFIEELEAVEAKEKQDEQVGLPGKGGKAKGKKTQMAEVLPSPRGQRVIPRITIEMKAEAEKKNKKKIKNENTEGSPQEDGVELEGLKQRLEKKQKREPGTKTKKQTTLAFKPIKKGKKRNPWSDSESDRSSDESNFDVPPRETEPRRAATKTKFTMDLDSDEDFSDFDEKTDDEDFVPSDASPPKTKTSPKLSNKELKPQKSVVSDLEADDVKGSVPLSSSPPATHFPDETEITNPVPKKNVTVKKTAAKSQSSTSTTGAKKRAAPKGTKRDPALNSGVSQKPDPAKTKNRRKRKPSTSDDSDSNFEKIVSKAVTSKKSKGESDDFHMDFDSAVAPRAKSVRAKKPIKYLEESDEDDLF
DNA gyrase (Staphylococcus aureus), sequence (P0A0K8 2-644 limits assumed): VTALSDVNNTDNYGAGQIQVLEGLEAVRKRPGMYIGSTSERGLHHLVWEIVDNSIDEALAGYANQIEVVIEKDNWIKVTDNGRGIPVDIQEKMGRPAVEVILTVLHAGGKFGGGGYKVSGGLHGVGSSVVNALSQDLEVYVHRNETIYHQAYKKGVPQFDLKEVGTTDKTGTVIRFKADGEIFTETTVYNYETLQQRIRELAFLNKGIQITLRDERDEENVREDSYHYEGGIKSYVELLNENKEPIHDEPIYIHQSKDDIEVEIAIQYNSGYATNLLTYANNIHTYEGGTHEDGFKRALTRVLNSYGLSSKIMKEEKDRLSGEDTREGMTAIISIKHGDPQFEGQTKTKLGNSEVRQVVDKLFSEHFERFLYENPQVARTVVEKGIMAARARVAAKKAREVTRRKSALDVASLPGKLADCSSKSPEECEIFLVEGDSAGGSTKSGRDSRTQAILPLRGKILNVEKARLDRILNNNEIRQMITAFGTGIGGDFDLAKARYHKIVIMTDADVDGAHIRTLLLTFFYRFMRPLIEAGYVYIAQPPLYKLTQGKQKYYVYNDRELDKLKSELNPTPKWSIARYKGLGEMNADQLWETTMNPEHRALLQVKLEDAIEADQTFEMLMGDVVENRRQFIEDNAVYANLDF
DNA gyrase (Staphylococcus aureus), sequence (P20831 whole entry partner): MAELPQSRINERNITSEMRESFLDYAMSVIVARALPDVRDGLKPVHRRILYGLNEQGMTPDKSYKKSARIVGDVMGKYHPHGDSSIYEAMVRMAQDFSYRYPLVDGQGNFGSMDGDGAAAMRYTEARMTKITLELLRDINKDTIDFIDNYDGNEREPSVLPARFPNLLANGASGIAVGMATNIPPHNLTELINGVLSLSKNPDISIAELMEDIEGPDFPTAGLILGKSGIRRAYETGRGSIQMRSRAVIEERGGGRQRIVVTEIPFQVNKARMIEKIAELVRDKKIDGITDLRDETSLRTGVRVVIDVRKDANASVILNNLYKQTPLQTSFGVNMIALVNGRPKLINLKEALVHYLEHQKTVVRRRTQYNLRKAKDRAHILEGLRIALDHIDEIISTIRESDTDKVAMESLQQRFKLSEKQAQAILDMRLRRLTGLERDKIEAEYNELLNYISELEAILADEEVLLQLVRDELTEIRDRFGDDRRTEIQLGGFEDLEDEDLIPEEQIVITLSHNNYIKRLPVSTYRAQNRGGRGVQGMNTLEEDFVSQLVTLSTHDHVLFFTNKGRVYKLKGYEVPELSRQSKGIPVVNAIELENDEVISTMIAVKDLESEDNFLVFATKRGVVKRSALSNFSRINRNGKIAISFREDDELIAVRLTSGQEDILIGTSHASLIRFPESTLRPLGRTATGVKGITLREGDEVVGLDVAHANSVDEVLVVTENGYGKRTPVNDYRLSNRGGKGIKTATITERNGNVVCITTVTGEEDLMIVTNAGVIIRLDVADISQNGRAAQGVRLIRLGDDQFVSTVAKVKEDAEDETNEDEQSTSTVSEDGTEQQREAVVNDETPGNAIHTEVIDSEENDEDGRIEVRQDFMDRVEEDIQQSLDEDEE

Row | SMILES | MIC (Escherichia coli [5]) | MIC (Acinetobacter baumannii) | MIC (Staphylococcus aureus [8]) | MIC (Staphylococcus aureus [10]) | IC50 (DNA gyrase) | MIC (Pseudomonas aeruginosa) | viability at 50 µM (MCF7) | MIC (Enterococcus faecium) | MIC (Enterobacter cloacae) | MIC (Klebsiella pneumoniae) | Activity (Escherichia coli [17]) | also measured
1 | O=C(O)c1cn(C2CC2)c2cc(N3CCNCC3)c(F)cc2c1=O [CIPROFLOXACIN] |  |  |  |  |  |  |  |  |  |  |  | Activity (Staphylococcus aureus [1]): Active; Ratio (Staphylococcus aureus [2]): 16; PAE (Staphylococcus aureus [3]): 2 h; Ratio (Staphylococcus aureus [4]): 8
2 | Cc1[nH]c(C(=O)Nc2ccc(-c3noc(=O)[nH]3)cc2NC2CCN(C(=O)OC(C)(C)C)CC2)c(Cl)c1Cl | > 64 µg/mL | > 64 µg/mL | 2 µg/mL (≈ 3.63 µM) | 0.5 µg/mL (≈ 0.907 µM) | 6.92 nM | > 64 µg/mL | 64% | 0.063 µg/mL (≈ 0.114 µM) | > 64 µg/mL | > 64 µg/mL |  | MIC (Enterococcus faecalis): < 0.031 µg/mL; Activity (Staphylococcus aureus [6]): Active; Activity (Staphylococcus aureus [7]): Dose-Dependent Effect; IC50 [9]: 1680 nM; Ratio (Staphylococcus aureus [2]): 128; Activity [11]: 98%; PAE (Staphylococcus aureus [3]): 2 h; MIC (Staphylococcus aureus [12]): < 0.031 µg/mL; Ratio (Staphylococcus aureus [4]): 4
3 | Cc1nnc(-c2ccc(NC(=O)c3[nH]c(C)c(Cl)c3Cl)c(OC(C)C)c2)o1 | > 64 µg/mL |  | > 64 µg/mL |  |  | > 64 µg/mL |  |  |  |  |  | Activity [13]: 95%; Activity [14]: 115%
4 | Cc1[nH]c(C(=O)Nc2ccc(-c3nnn[nH]3)cc2N2CCCC(CNC(=O)OC(C)(C)C)C2)c(Cl)c1Cl (stereo not drawn) |  |  |  |  | 280 nM |  |  |  |  |  |  | Activity [15]: 95%
5 | Cc1[nH]c(C(=O)Nc2ccc(-n3nn[nH]c3=O)cc2N2CCC(NC(=O)OC(C)(C)C)CC2)c(Cl)c1Cl |  |  |  |  | 33 nM |  |  |  |  |  | 63% | Activity [16]: 65%; Activity [11]: 34%
6 | Cc1[nH]c(C(=O)Nc2ccc(-c3nnn[nH]3)cc2N2CCOCC2)c(Cl)c1Cl | > 64 µg/mL | > 64 µg/mL | > 64 µg/mL | > 64 µg/mL | 44.5 nM | > 64 µg/mL |  | > 64 µg/mL | > 64 µg/mL | > 64 µg/mL |  | Activity (Escherichia coli [18]): 77%; IC50 [19]: 39200 nM
7 | Cc1[nH]c(C(=O)Nc2ccc(-n3nn[nH]c3=O)cc2N2CCN(c3ccccc3)CC2)c(Cl)c1Cl | > 32 µg/mL | > 32 µg/mL | > 32 µg/mL | > 32 µg/mL | 7.8 nM | > 32 µg/mL | 58% | 0.5 µg/mL (≈ 0.974 µM) | > 32 µg/mL | > 32 µg/mL | 104% | MIC (Enterococcus faecalis): 0.5 µg/mL (≈ 0.974 µM); IC50 [19]: 33600 nM; MIC (Staphylococcus aureus [12]): 0.5 µg/mL (≈ 0.974 µM)
8 | Cc1[nH]c(C(=O)Nc2ccc(-c3noc(=O)[nH]3)cc2N2CCOCC2)c(Cl)c1Cl | > 32 µg/mL |  | 4 µg/mL (≈ 9.13 µM) | 2 µg/mL (≈ 4.56 µM) | 13 nM | > 32 µg/mL | 101% | 0.5 µg/mL (≈ 1.14 µM) |  |  | 76% | Activity [14]: 119%

From ChEMBL document CHEMBL6071157, “Improved N-phenylpyrrolamide inhibitors of DNA gyrase as antibacterial agents for high-priority bacterial strains” (Eur J Med Chem, 2024)
